According to publication PMC10377586 (Biomolecules, 2023):
pEC50: −log10 of the molar value.

Experiments:
[1] = tested on: SH-SY5Y cells; assay: Neuroprotection against H2O2-induced toxicity, LDH assay; type: cell-based; settings: 300 µM hydrogen peroxide, compounds at 10 or 50 µM
Method: (§1) For neuroprotection studies, a cellular model of neuroblastoma SH-SY5Y cells exposed to hydrogen peroxide was applied. Lactate dehydrogenase (LDH) release was used as a measure of cell death. First, the compounds (11a, 11c, 12, 13, 20a, 21, and 22) were tested for their possible intrinsic neurotoxicity to the SH-SY5Y cell line (see Supplementary Figure S1). […] All other compounds were tested for cytoprotective effects against H2O2-induced toxicity in SH-SY5Y cells.
(§2) Neuroblastoma SH-SY5Y cells were seeded at the density of 20,000 cells per well to 96-well plates one day before the experiment. Twelve hours prior to start of the assay, cell culture medium was replaced with the fresh portion of reduced serum (1%) medium. Tested compounds were added to the cells at the final concentration of 10 or 50 µM in 1% DMSO. In the neuroprotection studies, hydrogen peroxide, at a final concertation of 300 µM, was pipetted to the assay plate 1 h after tested compounds addition. Cell death, represented by the release of LDH through the perforated cell membrane, was measured following 14 h incubation of cells with the compounds and hydrogen peroxide. LDH levels in cell culture medium were determined using fluorometric CytoTox-ONE Homogeneous Membrane Integrity Assay (Promega Corporation, Madison, WI, USA), according to manufacturer’s instructions.
Figure 3 The ability of tested compounds to reduce the cytotoxicity of 300 μM hydrogen peroxide (HP) on dopaminergic neuronal cells (SH-SY5Y) as judged by LDH assay. Data represent the mean of two experiments performed in triplicate. Results are presented as percent of cytotoxicity induced by 300 µM hydrogen peroxide (HP) ± SEM. NT–vehicle control (1% DMSO).

[2] = target: T1, rat A1 (rA1) ARs (Rattus norvegicus, UniProt P25099); assay: Radioligand binding [3H]CCPA, rat brain cortical membranes; settings: read-out: rA1 [3H]CCPA % inhibition ± SEM at 10 µM
T1 construct: using rat brain cortical membrane preparations for A1; tissue Pel Freez; host or cells: rat brain cortex membranes
T1 sequence (P25099 1-326): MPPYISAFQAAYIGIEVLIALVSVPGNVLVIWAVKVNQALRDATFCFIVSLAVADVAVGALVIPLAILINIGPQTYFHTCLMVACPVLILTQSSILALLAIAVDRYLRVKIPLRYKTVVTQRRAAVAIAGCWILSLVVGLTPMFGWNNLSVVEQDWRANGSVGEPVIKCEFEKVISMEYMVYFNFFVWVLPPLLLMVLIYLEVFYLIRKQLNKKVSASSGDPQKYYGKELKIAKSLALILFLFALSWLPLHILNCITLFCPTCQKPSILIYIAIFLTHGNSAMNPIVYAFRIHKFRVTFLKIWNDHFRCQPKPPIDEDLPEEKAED

[3] = target: T2, rat A2A (rA2A) ARs (Rattus norvegicus, UniProt P30543); assay: Radioligand binding [3H]MSX-2, rat brain striatal membranes; settings: read-out: rA2A [3H]MSX-2 % inhibition ± SEM at 10 µM
T2 construct: rat brain striatal membrane preparations for A2A AR assays; tissue Pel Freez; host or cells: rat brain striatum membranes
T2 sequence (P30543 whole entry): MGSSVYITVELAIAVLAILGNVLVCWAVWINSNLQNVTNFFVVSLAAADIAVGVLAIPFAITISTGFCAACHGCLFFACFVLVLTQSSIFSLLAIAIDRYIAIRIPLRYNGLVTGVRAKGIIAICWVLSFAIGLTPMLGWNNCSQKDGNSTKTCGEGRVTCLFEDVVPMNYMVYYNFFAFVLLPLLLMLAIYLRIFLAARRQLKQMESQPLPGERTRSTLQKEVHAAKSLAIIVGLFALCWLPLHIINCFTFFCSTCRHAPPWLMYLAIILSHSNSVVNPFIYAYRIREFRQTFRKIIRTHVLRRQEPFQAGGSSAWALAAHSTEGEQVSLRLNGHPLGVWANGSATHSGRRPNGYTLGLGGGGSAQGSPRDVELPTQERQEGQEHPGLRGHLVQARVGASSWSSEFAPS

[4] = target: human dopamine D2L receptors (Homo sapiens, UniProt P14416); assay: cAMP accumulation assay in forskolin-stimulated HEK293 cells expressing hD2R; type: cell-based
Chain of human dopamine D2L receptors (P14416 whole entry): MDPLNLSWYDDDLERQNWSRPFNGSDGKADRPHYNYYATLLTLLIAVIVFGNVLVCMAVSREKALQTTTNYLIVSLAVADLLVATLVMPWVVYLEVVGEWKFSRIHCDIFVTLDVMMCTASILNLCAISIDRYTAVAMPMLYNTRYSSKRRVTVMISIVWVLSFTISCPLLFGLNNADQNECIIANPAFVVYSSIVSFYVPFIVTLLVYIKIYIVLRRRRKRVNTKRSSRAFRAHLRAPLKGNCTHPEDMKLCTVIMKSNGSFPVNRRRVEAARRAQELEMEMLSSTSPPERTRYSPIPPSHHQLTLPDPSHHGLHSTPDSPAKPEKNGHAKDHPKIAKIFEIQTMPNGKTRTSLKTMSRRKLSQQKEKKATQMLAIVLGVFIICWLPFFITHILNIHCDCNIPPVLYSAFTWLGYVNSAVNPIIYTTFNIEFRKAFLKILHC

[5] = tested on: SH-SY5Y cells; assay: Intrinsic neurotoxicity, LDH release from SH-SY5Y cells; type: cell-based; settings: 50 µM
Method: as §1, §2
Supplementary Figure 1. […]

inhibition at 10 µM [2] [%]	Compound	cytoprotective effect against H2O2-induced toxicity (LDH release) [1]	dose dependence of cytoprotective effect [1]	other results
–	CCCn1c(=O)c2c(nc(NCCc3ccc(O)c(O)c3)n2CCC)n(CCC)c1=O [Compound 12, 8-((3,4-Dihydroxyphenethyl)amino)-1,3,7-tripropyl-3,7-dihydro-1H-purine-2,6-dione]	most potent	Dose-dependent responses	–
43	Cn1c(=O)c2c(nc3n2CCCN3CCc2ccc(O)c(O)c2)n(C)c1=O [Compound 20a, 9-(3,4-Dihydroxyphenethyl)-1,3-dimethyl-6,7,8,9-tetrahydropyrimido[2,1-f]purine-2,4(1H,3H)-dione]	–	–	–
43	CCCCCCn1c(NCCc2ccc(O)c(O)c2)nc2c1c(=O)n(C)c(=O)n2C [Compound 11i, 8-((3,4-Dihydroxyphenethyl)amino)-7-hexyl-1,3-dimethyl-3,7-dihydro-1H-purine-2,6-dione]	–	–	inhibition at 10 µM [3]: 14%
–	CCCCn1c(=O)c2c(nc3n2CCCN3CCc2ccc(O)c(O)c2)n(CCCC)c1=O [Compound 22, 1,3-Dibutyl-9-(3,4-dihydroxyphenethyl)-6,7,8,9-tetrahydropyrimido[2,1-f]purine-2,4(1H,3H)-dione]	most potent	–	–
46	Cn1c(=O)c2c(nc(NCCc3ccc(O)c(O)c3)n2CCc2ccccc2)n(C)c1=O [Compound 11k, 8-((3,4-Dihydroxyphenethyl)amino)-1,3-dimethyl-7-phenethyl-3,7-dihydro-1H-purine-2,6-dione]	–	–	inhibition at 10 µM [3]: 44%
–	CCCn1c(NCCc2ccc(O)c(O)c2)nc2c1c(=O)n(C)c(=O)n2C [Compound 11c, 8-((3,4-Dihydroxyphenethyl)amino)-1,3-dimethyl-7-propyl-3,7-dihydro-1H-purine-2,6-dione]	–	Dose-dependent responses	–
–	CCCn1c(=O)c2c(nc3n2CCCN3CCc2ccc(O)c(O)c2)n(CCC)c1=O [Compound 21, 9-(3,4-Dihydroxyphenethyl)-1,3-dipropyl-6,7,8,9-tetrahydropyrimido[2,1-f]purine-2,4(1H,3H)-dione]	most potent	Dose-dependent responses	–
–	CCCCn1c(=O)c2c(nc(NCCc3ccc(O)c(O)c3)n2CCC)n(CCCC)c1=O [Compound 13, 1,3-Dibutyl-8-((3,4-dihydroxyphenethyl)amino)-7-propyl-3,7-dihydro-1H-purine-2,6-dione]	–	–	pEC50 ([4]; forskolin-stimulated HEK293 cells, human D2L, read-out: EC50, functional cAMP assay): 4.95; intrinsic activity at D2R ([4]; functional cAMP assay): agonistic properties; intrinsic neurotoxicity to SH-SY5Y cell line (LDH release) [5]: significant cytotoxicity
